According to patent US9492471B2, “Methods of treating a disease or disorder associated with Bruton'S Tyrosine Kinase” (Celgene Avilomics Research, Inc., priority 2013, dated 2016):
Read-outs that look alike come from different tables or passages of the source.

Assays:
Assay in all cases: HotSpot kinase profiling
Format in all cases: biochemical
EPHA7 = molecular target: T1, EPHA7 (Homo sapiens, UniProt Q15375)
T1 construct: purchased Reaction Biology Corp
How it was run: (§1)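 Percent inhibition, averaged when run more than once and referenced to a DMSO negative control, came from a radioactive filter-binding readout on P81 paper. Reactions of kinase with freshly made substrate and cofactors ran for 2 h at room temperature.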

FAK/PTK2 = molecular target: T2, FAK/PTK2 (Homo sapiens, UniProt Q05397)
T2 construct: purchased Reaction Biology Corp
How it was run: as §1

HIPK4 = molecular target: T3, HIPK4 (Homo sapiens, UniProt Q8NE63)
T3 construct: purchased Reaction Biology Corp
T3 sequence (Q8NE63 1-616): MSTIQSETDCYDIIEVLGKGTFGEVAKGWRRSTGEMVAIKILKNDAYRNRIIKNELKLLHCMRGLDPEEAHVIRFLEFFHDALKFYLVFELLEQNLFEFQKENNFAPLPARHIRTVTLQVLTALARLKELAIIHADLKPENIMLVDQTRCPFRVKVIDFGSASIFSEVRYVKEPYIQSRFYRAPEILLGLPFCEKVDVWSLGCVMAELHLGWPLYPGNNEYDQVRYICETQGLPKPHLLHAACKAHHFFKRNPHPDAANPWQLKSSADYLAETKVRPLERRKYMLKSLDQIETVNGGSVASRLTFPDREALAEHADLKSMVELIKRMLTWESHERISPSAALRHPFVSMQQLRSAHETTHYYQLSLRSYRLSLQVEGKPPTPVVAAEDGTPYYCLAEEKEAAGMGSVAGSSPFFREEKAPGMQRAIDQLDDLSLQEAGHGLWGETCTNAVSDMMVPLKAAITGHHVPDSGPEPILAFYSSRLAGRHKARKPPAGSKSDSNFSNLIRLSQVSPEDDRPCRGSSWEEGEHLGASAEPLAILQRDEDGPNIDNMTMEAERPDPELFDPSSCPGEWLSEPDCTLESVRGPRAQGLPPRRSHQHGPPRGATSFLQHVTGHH
How it was run: as §1

LATS1 = molecular target: T4, LATS1 (Homo sapiens, UniProt O95835)
T4 construct: purchased Reaction Biology Corp
T4 sequence (O95835 1-1130): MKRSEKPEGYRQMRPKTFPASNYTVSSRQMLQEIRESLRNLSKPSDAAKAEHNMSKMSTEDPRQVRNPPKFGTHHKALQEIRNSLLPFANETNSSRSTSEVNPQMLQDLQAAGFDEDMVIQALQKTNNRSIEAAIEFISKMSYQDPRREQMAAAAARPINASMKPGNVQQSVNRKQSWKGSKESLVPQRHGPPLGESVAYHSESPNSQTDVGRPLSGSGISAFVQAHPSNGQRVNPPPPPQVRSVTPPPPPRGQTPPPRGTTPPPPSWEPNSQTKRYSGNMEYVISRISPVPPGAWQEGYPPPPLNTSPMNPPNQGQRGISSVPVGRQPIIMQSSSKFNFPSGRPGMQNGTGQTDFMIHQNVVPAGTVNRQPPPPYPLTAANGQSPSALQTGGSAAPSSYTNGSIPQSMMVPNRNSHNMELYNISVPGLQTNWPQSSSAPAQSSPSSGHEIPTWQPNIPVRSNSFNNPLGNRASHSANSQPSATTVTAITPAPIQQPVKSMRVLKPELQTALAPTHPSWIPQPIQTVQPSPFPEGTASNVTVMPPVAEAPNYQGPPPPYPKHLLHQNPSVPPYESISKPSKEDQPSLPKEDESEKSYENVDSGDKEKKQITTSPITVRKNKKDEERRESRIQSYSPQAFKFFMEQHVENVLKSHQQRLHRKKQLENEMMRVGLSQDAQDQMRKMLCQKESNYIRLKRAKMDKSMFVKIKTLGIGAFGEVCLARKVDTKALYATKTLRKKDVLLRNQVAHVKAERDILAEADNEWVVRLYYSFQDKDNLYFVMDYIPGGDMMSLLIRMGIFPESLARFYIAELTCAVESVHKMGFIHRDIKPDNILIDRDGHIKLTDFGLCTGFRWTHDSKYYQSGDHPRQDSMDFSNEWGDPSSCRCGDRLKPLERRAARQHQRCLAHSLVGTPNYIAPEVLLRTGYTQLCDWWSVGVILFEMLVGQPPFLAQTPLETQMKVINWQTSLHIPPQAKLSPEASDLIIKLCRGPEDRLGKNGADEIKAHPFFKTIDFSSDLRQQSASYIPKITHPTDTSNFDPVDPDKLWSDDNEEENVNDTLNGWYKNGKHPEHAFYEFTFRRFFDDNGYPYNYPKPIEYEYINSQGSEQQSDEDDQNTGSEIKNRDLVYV
How it was run: as §1

PAK3 = molecular target: T5, PAK3 (Homo sapiens, UniProt O75914)
T5 construct: purchased Reaction Biology Corp
How it was run: as §1

PKAcb = molecular target: T6, PKAcb (Homo sapiens, UniProt P22694)
T6 construct: purchased Reaction Biology Corp
How it was run: as §1

RET = molecular target: T7, RET (Homo sapiens, UniProt P07949)
T7 construct: purchased Reaction Biology Corp
How it was run: as §1

STK16 = molecular target: T8, STK16 (Homo sapiens, UniProt O75716)
T8 construct: purchased Reaction Biology Corp
How it was run: as §1

[1] = read-out: % Enzyme Activity (relative to DMSO controls) Run 1
[2] = read-out: % Enzyme Activity (relative to DMSO controls) Run 2

T1 sequence (Q15375 28-998): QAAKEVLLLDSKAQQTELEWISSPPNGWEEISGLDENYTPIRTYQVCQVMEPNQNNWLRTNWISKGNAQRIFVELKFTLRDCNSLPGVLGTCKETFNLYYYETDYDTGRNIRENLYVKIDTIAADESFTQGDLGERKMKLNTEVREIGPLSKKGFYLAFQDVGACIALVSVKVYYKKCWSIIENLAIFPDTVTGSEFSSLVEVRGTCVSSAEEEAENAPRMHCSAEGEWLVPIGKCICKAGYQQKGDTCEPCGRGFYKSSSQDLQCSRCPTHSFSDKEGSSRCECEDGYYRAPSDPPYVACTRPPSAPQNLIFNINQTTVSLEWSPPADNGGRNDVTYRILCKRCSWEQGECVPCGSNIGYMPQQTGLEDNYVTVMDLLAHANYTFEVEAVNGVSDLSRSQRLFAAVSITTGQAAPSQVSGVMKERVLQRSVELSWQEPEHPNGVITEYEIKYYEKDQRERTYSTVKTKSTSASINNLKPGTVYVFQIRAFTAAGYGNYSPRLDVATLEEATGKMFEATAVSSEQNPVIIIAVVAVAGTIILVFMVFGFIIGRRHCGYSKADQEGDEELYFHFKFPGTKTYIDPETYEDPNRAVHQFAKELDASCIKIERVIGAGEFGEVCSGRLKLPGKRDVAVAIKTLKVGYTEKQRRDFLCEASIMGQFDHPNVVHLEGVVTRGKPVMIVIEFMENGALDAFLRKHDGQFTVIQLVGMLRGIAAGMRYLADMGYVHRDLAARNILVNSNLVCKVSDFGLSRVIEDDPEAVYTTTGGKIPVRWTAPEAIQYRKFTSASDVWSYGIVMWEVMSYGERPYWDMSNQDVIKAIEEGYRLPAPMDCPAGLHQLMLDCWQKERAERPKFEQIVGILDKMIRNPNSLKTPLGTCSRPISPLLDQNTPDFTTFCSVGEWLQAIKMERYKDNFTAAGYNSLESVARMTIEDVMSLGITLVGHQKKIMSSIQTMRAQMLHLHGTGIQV
T5 sequence (O75914 whole entry): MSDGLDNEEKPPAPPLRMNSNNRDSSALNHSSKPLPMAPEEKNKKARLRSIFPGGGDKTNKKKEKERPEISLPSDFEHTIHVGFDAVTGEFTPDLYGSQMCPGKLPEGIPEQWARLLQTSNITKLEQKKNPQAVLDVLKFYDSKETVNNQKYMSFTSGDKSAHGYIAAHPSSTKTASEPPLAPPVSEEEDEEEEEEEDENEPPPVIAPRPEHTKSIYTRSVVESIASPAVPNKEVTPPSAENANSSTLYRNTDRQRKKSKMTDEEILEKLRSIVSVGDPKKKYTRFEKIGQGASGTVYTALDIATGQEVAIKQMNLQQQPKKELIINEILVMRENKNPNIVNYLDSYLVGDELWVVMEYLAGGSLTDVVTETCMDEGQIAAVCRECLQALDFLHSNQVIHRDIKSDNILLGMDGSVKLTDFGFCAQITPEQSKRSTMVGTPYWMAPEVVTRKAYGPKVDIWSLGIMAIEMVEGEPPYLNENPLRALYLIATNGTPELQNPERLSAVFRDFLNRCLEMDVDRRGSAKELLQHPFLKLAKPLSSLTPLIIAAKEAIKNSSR
T2 sequence (Q05397 whole entry): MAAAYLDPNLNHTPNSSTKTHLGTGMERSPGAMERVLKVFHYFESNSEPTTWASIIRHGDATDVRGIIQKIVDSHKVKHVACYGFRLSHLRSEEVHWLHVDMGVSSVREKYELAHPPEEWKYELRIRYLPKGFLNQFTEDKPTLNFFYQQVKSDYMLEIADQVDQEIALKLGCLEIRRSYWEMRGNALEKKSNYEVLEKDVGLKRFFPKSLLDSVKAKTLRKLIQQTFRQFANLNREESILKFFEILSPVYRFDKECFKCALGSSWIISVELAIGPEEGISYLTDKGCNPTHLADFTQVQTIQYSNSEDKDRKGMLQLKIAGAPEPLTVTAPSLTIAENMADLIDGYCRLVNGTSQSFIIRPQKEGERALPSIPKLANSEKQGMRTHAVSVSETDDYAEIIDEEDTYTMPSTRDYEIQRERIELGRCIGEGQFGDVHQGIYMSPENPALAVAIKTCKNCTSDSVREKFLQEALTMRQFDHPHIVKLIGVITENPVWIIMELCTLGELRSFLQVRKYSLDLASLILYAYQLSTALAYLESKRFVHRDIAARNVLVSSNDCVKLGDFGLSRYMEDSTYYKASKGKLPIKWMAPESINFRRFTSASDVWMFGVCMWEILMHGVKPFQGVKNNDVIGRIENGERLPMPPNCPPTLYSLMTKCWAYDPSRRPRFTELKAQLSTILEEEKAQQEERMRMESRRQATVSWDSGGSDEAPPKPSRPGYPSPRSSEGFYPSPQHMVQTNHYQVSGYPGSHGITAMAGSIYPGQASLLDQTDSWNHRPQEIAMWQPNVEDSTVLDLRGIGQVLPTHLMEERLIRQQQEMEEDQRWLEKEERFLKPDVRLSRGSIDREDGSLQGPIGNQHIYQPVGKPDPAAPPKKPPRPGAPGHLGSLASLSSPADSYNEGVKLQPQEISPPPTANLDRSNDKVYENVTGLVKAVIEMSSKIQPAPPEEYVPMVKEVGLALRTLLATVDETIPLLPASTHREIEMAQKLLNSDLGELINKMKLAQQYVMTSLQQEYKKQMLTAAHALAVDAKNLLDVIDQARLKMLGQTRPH
T8 sequence (O75716 whole entry): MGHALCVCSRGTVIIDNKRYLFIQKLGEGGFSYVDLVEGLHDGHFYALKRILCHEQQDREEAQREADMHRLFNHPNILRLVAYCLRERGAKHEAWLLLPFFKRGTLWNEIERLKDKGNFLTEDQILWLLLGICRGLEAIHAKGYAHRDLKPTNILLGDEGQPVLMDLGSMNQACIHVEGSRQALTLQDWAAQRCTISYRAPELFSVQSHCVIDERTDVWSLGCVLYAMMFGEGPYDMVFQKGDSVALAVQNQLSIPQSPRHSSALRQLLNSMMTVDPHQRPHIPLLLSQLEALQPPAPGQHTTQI
T7 sequence (P07949 29-1114): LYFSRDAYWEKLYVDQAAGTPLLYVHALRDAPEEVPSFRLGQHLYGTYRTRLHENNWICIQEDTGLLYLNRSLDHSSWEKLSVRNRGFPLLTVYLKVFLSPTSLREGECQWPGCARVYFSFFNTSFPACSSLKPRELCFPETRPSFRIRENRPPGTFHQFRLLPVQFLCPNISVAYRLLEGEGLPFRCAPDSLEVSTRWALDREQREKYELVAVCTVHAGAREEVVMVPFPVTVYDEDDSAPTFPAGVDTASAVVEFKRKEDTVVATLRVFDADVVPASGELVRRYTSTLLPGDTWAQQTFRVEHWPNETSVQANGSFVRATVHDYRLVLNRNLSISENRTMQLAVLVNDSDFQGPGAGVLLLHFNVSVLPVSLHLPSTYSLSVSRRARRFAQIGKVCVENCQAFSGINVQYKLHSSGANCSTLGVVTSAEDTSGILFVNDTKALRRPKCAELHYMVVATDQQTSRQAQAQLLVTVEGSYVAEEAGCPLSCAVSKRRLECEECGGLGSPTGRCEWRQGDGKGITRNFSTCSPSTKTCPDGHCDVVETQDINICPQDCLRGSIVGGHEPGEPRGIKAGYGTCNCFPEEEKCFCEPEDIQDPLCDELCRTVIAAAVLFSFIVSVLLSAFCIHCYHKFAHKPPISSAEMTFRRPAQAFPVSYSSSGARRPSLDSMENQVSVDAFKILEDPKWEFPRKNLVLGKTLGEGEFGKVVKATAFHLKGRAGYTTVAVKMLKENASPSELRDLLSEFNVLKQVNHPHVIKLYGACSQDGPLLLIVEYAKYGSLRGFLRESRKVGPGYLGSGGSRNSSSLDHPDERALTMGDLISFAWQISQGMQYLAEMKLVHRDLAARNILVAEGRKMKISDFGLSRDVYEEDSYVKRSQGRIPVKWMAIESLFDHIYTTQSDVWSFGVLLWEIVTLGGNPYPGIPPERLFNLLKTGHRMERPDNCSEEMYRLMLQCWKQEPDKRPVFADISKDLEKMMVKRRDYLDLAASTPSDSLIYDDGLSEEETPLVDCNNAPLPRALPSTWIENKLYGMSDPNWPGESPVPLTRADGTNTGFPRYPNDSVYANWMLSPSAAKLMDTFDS

`C=CC(=O)Nc1cccc(Nc2nc(Nc3ccc(OCCOC)c(F)c3)ncc2F)c1` [Compound 2] was tested, and the inhibition at 3 µM (EPHA7) was 37.9%, the remaining activity at 3 µM (EPHA7; [1]) was 60% and the remaining activity at 3 µM (EPHA7; [2]) was 64.1%. For the same compound, the inhibition at 3 µM (FAK/PTK2) was 37.1%, the remaining activity at 3 µM (FAK/PTK2; [1]) was 62.8% and the remaining activity at 3 µM (FAK/PTK2; [2]) was 62.9%. For the same compound, the inhibition at 3 µM (HIPK4) was 6.31%, the remaining activity at 3 µM (HIPK4; [1]) was 93.6% and the remaining activity at 3 µM (HIPK4; [2]) was 93.8%. The inhibition at 3 µM (LATS1) was 10.3%, the remaining activity at 3 µM (LATS1; [1]) was 89.5% and the remaining activity at 3 µM (LATS1; [2]) was 89.8%. The inhibition at 3 µM (PAK3) was 6.46%, the remaining activity at 3 µM (PAK3; [1]) was 91.9% and the remaining activity at 3 µM (PAK3; [2]) was 95.2%. The inhibition at 3 µM (PKAcb) was 49.6%, the remaining activity at 3 µM (PKAcb; [1]) was 49.7% and the remaining activity at 3 µM (PKAcb; [2]) was 51.1%. The inhibition at 3 µM (RET) was 86.6%, the remaining activity at 3 µM (RET; [1]) was 13.2% and the remaining activity at 3 µM (RET; [2]) was 13.6%. The inhibition at 3 µM (STK16) was 78%, the remaining activity at 3 µM (STK16; [1]) was 22.9% and the remaining activity at 3 µM (STK16; [2]) was 21%.
